Laboratory results from patent US9248200B2, “Method of delivering an anti-cancer agent to a cell” (Agency for Science, Technology and Research, priority 2007, dated 2016).

Columns and labels:
proteinase K = proteinase K (Parengyodontium album, UniProt P06873); assay: Proteolysis assessment (FITC-BSA fluorescence with proteinase K); details: proteinase K 0.05 mg/ml, over time; FIG. 3
Protocol: Proteolysis Assessment: Protein degradation was determined by monitoring the fluorescence intensity increment in FITC-BSA when samples were subjected to proteinase K (0.05 mg/mI), using a fluorescence spectrophotometer (Hitachi, Japan, λex=490 nm and λem=530 nm). All measurements were run in triplicate.

[1] = system: human normal mammary epithelial cells (HMEC); assay: Cytotoxicity test (Alamar Blue cell viability); assay type: cell-based; details: treated 2 days, different concentrations, FIG. 1
Protocol: Cells were plated (1×10^4 cells in mammary epithelial growth medium/well) in quintuplicate and octuplicate for samples and control, respectively, in 96-well microplates, and allowed to adhere overnight.

[2] = system: SKBR-3 (HER2-overexpressing human breast cancer cell line); assay: Cancer cell proliferation assessment (Alamar Blue); assay type: cell-based; details: SKBR-3 cells; Herceptin 0.5 mg/ml; FIG. 4
Protocol: Cancer Cell Proliferation Assessment: SKBR-3 cells (ATCC, HTB3O, USA) were plated (1×10^4 cells in McCoy's 5 A medium/well) in quintuplicate and octuplicate for samples and control, respectively, in 96-well microplates and allowed to adhere overnight. […] At the time points indicated, the culture media were replaced by the phenol red-free media containing 10% of Alamar Blue. Cell proliferation was determined from the reduction in dye absorbance at 570 and 600 nm after 4 h of incubation.

Sequence of proteinase K (P06873 106-384): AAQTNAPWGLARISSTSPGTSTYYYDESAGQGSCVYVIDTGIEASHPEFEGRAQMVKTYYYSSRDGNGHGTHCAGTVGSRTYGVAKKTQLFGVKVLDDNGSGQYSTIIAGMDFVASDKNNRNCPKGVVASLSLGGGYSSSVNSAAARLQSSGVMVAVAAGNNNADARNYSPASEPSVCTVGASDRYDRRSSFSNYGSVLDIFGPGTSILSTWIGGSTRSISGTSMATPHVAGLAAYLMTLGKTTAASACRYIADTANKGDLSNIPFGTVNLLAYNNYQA

free FITC-BSA: fluorescence-labeled protein (FITC-BSA)
fluorescence intensity of FITC-BSA (protein degradation) (proteinase K): greatly increased with time

(−)-epigallocatechin gallate [EGCG]
cytotoxicity [1]: low cytotoxicity

oligomeric (−)-epigallocatechin-3-O-gallate [OEGCG]
inhibition of cell growth [2]: inhibited
